Experimental data: ChEMBL document CHEMBL1146129, “First dual M3 antagonists-PDE4 inhibitors: synthesis and SAR of 4,6-diaminopyrimidine derivatives” (Bioorg Med Chem Lett, 2006)

Tests used:
[1] = target: T1, Muscarinic acetylcholine receptor M3 (Homo sapiens, UniProt P20309); assay: biochemical; format: cell-based, CHO
Target sequence in this assay (P20309 whole entry): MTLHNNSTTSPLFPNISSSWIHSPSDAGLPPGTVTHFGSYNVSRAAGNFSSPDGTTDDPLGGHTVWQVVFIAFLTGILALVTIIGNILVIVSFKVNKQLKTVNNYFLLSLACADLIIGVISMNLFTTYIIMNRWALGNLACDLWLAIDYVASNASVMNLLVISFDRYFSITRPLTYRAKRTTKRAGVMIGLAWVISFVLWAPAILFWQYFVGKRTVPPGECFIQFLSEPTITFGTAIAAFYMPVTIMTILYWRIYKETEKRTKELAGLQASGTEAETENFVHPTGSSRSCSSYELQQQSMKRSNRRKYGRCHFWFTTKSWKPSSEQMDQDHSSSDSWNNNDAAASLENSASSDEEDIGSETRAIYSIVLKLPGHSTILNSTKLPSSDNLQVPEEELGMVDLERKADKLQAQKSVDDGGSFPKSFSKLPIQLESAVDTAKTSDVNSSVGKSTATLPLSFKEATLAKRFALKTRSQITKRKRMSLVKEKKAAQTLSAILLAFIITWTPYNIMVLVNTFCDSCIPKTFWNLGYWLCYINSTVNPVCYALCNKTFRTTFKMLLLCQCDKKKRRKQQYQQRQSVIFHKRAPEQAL

Phosphodiesterase 4 = Phosphodiesterase 4 (Homo sapiens, UniProt P27815+Q08499+Q07343+Q08493); format: functional, cell-based; details: u-937
Description: Inhibition of PDE4 activity in U937 cells

[2] = buffer, pH 7.4
[3] = target: T1, Muscarinic acetylcholine receptor M3; assay: Displacement of [3H]methylscopolamine from recombinant human muscarinic M3 receptors expressed in CHO cells at 10 um; format: cell-based
Target sequence in this assay (P20309 whole entry, looked up): as the sequence (P20309 whole entry) above

Description for physchem: Dissociation constant, pKa of the compound

Row | Compound | Ki [1] | IC50 (Phosphodiesterase 4) | pKa (physchem) | LogK-IAMex [2] | inhibition [3]
1 | Cc1c(N[C@H]2C[C@@H]2C)nc(C2CC2)nc1N1CCCCCC1 | 0.0079 µM | 7.9 µM |  |  | 
2 | C[C@@H]1C[C@H]1c1nc(NC2CC2)cc(N2CCCCCC2)n1 | 0.398 µM | 2.5 µM |  |  | 
3 | Fc1c(NC2CC2)nc(C2CC2)nc1N1CCCCCC1 | 0.251 µM | 0.63 µM | 6.44 |  | 
4 | Cc1c(NCCc2cccs2)nc(C2CC2)nc1NC1CC1 | 0.079 µM | 2.5 µM |  | 2.57 | 
5 | Brc1c(NC2CC2)nc(C2CC2)nc1N1CCCCCC1 | 0.316 µM | 0.63 µM | 6.21 |  | 
6 | Cc1c(NC2CCCCC2)nc(C2CC2)nc1NC1CC1 | 0.316 µM | 2.5 µM |  | 2.71 | 
7 | Cc1c(NC2CC2)nc(Cc2ccccc2)nc1N1CCCCCC1 | 0.501 µM | 1 µM |  |  | 
8 | Cc1c(NC2CCCCCC2)nc(C2CC2)nc1NC1CC1 | 0.398 µM | 2 µM |  | 2.98 | 
9 | Cc1c(NC2CC2)nc([C@@H]2C[C@H]2C)nc1N1CCCCCC1 | 0.032 µM | 3.2 µM |  |  | 
10 | Cc1c(NC2CC2)nc(C2CC2)nc1N1CCC(Cc2ccccc2)CC1 | 0.79 µM | 2 µM |  | 3.89 | 
11 | Nc1c(NC2CC2)nc(C2CC2)nc1N1CCCCCC1 | 0.079 µM | 0.79 µM | 7.15 |  | 
12 | COc1c(NC2CC2)nc(C2CC2)nc1N1CCSCC1 | 0.398 µM | 2.5 µM | 6.47 |  | 
13 | Cc1c(NC2CC2)nc(C2CCCC2)nc1N1CCCCCC1 | 0.079 µM | 1.26 µM |  |  | 
14 | Cc1c(NC2CC2)nc(C2CC2)nc1N(C)Cc1ccccc1 | 0.251 µM | 0.4 µM |  | 2.7 | 
15 | Cc1c(NC2CC2)nc(CC2CC2)nc1N1CCCCCC1 | 0.126 µM | 2 µM |  |  | 
16 | Cc1c(NC2CC2)nc(C2CC2)nc1N1CCc2ccccc2C1 | 0.316 µM | 0.5 µM |  | 2.97 | 
17 | Cc1c(NCc2ccccc2)nc(C2CC2)nc1NC1CC1 | 0.2 µM | 4 µM |  | 2.36 | 
18 | O=[N+]([O-])c1c(NC2CC2)nc(C2CC2)nc1N1CCCCCC1 | 2.51 µM | 1.26 µM | 4.64 |  | 
19 | Fc1c(NC2CC2)nc(C2CC2)nc1N1CCSCC1 |  | 0.25 µM | 5.27 |  | < 50%
20 | CCc1c(NC2CC2)nc(C2CC2)nc1N1CCSCC1 | 0.1 µM | 1.6 µM | 6.78 |  | 
21 | Cc1c(NC2(C)CC2)nc(C2CC2)nc1N1CCCCCC1 | 0.01 µM | 6.3 µM |  |  | 
22 | C1CCCN(c2nc(C3CC3)nc3c2CCCCN3)CC1 | 0.01 µM | 1.3 µM |  |  | 
23 | C1CCCN(c2nc(C3CC3)nc3c2CCCN3)CC1 | 0.05 µM | 0.5 µM |  |  | 
24 | c1c(NC2CC2)nc(C2CC2)nc1N1CCCCCC1 | 0.063 µM | 0.4 µM | 8.03 |  | 
25 | Cc1c(NCc2c(F)cccc2F)nc(C2CC2)nc1NC1CC1 | 0.063 µM | 2 µM |  | 2.38 | 
26 | Cc1c(NCc2cccs2)nc(C2CC2)nc1NC1CC1 | 0.126 µM | 6.3 µM |  | 2.21 | 
27 | Cc1c(NC2CC2)nc(C(C)C)nc1N1CCCCCC1 | 0.025 µM | 2.5 µM |  |  | 
28 | Cc1c(NC2CC2)nc(C2CC2)nc1N1CC2CCC(C2)C1 | 0.0063 µM | 0.5 µM |  | 3.11 | 

Further lines, results first:

Row | Ki [1] | IC50 (Phosphodiesterase 4) | pKa (physchem) | LogK-IAMex [2] | inhibition [3] | Compound
29 | 0.05 µM | 0.63 µM |  | 3.21 |  | CCC1CCN(c2nc(C3CC3)nc(NC3CC3)c2C)CC1
30 | 0.016 µM | 1.6 µM |  | 3.05 |  | Cc1c(NC2CC2)nc(C2CC2)nc1N1CCCCCCC1
31 | 0.025 µM | 0.32 µM |  | 3.02 |  | Cc1c(NC2CC2)nc(C2CC2)nc1N1CCC(C)(C)CC1
32 | 3.2 µM | 3.2 µM |  | 1.35 |  | Cc1c(NC2CC2)nc(C2CC2)nc1N1CCC(=O)CC1
33 | 0.079 µM | 0.32 µM | 6.99 | 2.14 |  | Cc1c(NC2CC2)nc(C2CC2)nc1N1CCSCC1
34 | 0.501 µM | 0.63 µM |  | 1.57 |  | Cc1c(NC2CC2)nc(C2CC2)nc1N1CCC(CO)CC1
35 | 0.016 µM | 0.63 µM |  | 2.8 |  | Cc1c(NC2CC2)nc(C2CC2)nc1N1CCC(C)CC1
36 | 0.079 µM | 0.4 µM |  | 2.7 |  | C=C1CCN(c2nc(C3CC3)nc(NC3CC3)c2C)CC1
37 | 0.501 µM | 4 µM |  | 1.2 |  | Cc1c(NC2CC2)nc(C2CC2)nc1N1CCC(O)CC1
38 | 0.013 µM | 0.5 µM |  | 2.5 |  | Cc1c(NC2CC2)nc(C2CC2)nc1N1CCCCC1
39 | 0.1 µM | 1.6 µM |  | 2.36 |  | Cc1c(NC2CC2)nc(C2CC2)nc1N1CCCC1
40 | 0.0079 µM | 2 µM |  |  |  | Cc1c(NC2CCC2)nc(C2CC2)nc1N1CCCCCC1
41 | 0.1 µM | 2 µM |  | 2.94 |  | Cc1c(NC2CC2)nc(C2CC2)nc1N1CCC(C(F)(F)F)CC1
42 | 0.04 µM | 2 µM |  |  |  | Cc1c(NC2CC2)nc(C2CCC2)nc1N1CCCCCC1
43 | 0.05 µM | 0.4 µM |  | 2.5 |  | Cc1c(NC2CC2)nc(C2CC2)nc1N1CCC(F)(F)CC1
44 | 0.158 µM | 0.79 µM |  | 3.66 |  | Cc1c(NC2CC2)nc(C2CC2)nc1N1CCC2(CCCC2)CC1
45 | 0.032 µM | 0.79 µM |  | 2.37 |  | Cc1c(NC2CC2)nc(C2CC2)nc1N1CC=CCC1
46 |  | 0.79 µM |  | 1.45 | < 50% | Cc1c(NC2CC2)nc(C2CC2)nc1N1CCOCC1
